Test results taken from US20240300977A1, “INHIBITORS OF DNA-DEPENDENT PROTEIN KINASE AND COMPOSITIONS AND USES THEREOF” (Intellia Therapeutics, Inc., priority 2021, published 2024).

What was measured:
TRBC = test: Off-target site validation, rhAmpSeq; settings: gRNA G016239 targeting TRBC; of 92 off-target sites; with the named DNA-PKI or none
TRAC = settings: human
NK cells = test: GFP insertion at AAVS1 in NK cells, flow cytometry; format: cell-based, human; settings: LNP + AAV, seven days
Method: NK cells were assessed for the impact of DNA protein kinase inhibitors (DNA-PKI) on indel and insertion rates. […] A subset of samples was also treated with AAV encoding a GFP coding sequence flanked by regions of homology to the AAVS1 edit site (SEQ ID NO: 16). NK cells were isolated from a commercially obtained leukopak using the EasySep Human NK Cell Isolation Kit ([…], Cat. No. 17955) according to the manufacturer's protocol. […] NK cells were plated at 50,000 cells per well in triplicate in OpTmizer supplemented as described above with DNA-PKI at concentrations indicated in Tables 10 and 11. […] For a subset of samples, AAV encoding GFP flanked by regions homologous to the AAVS1 edit site were added at a multiplicity of infection (MOI) of 600,000 genome copies following editing. At seven days post LNP composition treatment, cells were phenotyped by flow cytometry to measure GFP insertion rates. Briefly, NK cells were incubated with antibodies targeting CD3 (Biolegend, Cat. No. 317336) and CD56 (Biolegend, Cat. No. 318310). […] NK cells were gated on size, CD3/CD56 status, and GFP expression. High GFP-expressing cells were gated as targeted GFP […] locus and low GFP-expressing cells were gated as episomal retention.

T cells [1] = test: TRAC LNP editing and GFP insertion in activated T cells with DNA-PK inhibitors, flow cytometry; settings: GFP positive of the CD3 negative T cells, day 5 post-edit
T cells [2] = test: SpyCas9 TRAC editing (indel) in T cells by NGS with or without Compound 4; format: cell-based, human; settings: day 4 NGS
Method: Upon thaw, T cells were plated at a density of 1.0×10^6 cells/mL in T cell growth media (TCGM) composed of CTS OpTmizer T Cell Expansion SFM and T Cell Expansion Supplement (ThermoFisher Cat. A1048501), 5% human AB serum (GeminiBio, Cat. 100-512) 1× Penicillin-Streptomycin, 1× Glutamax, 10 mM HEPES, 200 U/mL recombinant human interleukin-2 (Peprotech, Cat. 200-02), 5 ng/ml recombinant human interleukin 7 (Peprotech, Cat. 200-07), and 5 ng/mL recombinant human interleukin 15 (Peprotech, Cat. 200-15). T cells were rested in this media for 24 hours, at which time they were activated with T Cell TransAct™, human reagent (Miltenyi, Cat. 130-111-160) added at a 1:100 ratio by volume.
48 hours post-activation, T cells were harvested, centrifuged at 500 g for 5 min, and resuspended at a concentration of 6.41×10^5 T cells/mL in T cell plating media (TCPM): a serum-free version of TCGM containing 400 U/mL recombinant human interleukin-2 (Peprotech, Cat. 200-02), 10 ng/mL recombinant human interleukin 7 (Peprotech, Cat. 200-07), and 10 ng/mL recombinant human interleukin 15 (Peprotech, Cat. 200-15). 50 μL of T cells in TCPM (3.2×10^4 T cells) were added per well to be treated in flat-bottom 96-well plates.
LNPs were generated as described in Example 1 at a ratio of 50/38.5/10/1.5 (Lipid A/cholesterol/DSPC/PEG2k-DMG).
Mix “A” was serially diluted 1:2 in TCTM, and mixed 1:1 by volume with mix “B”. 25 μL of the resulting solution was added to 3.2×10^4 T cells in 96-well plates.
Next, a repair template in the form of an adeno-associated virus (AAV) encoding the HD3 TCR (SEQ ID NO: 18 was diluted in TCTM to 3.84×10^11 genome copies/mL in the presence or absence of Compound 4 diluted to 2 μM. 25 μL of the resulting solution was added to T cells that were treated with LNPs in the prior step. To enable editing assessments by NGS without the interference of repair templates, an arm of this experiment received 25 μL of TCTM with or without Compound 4 diluted to 2 μM in the absence of AAVs.
Following the addition of LNPs, repair templates and Compound 4, T cells were incubated at 37° C. for 48 hours, at which time T cells were centrifuged at 500 g for 5 min, resuspended in 200 μL of TCGM and returned to the incubator.

T cells [3] = test: Insertion percent in T cells of Example 17; format: cell-based, human; settings: T cells from Example 12; FIG. 9B
Text: On day 8 post-editing, T cells from Example 12 from the untreated, unedited, Compound 3 and Compound 4 guides samples were collected, spun down and the pellets were directly used as input material for gDNA isolation using “Zymo Quick DNA/RNA Mag Beads Kit” (Zymo Cat. R2131). The UnIT structural variant characterization assay was applied to these gDNA samples. High molecular weight genomic DNA is simultaneously fragmented and sequence-tagged (‘tagmented’) with the Tn5 transposase and an adapter with a partial Illumina P5 sequence and a 12 bp unique molecular identifier (UMI). Two sequential PCRs using a primer to P5 and hemi-nested gene specific primers (GSP) imparting the Illumina the P7 sequence to create two Illumina compatible NGS libraries per sample (Illumina, Ref 15033624). Sequencing across both directions of the CRISPR/Cas9 targeted cut site with the two libraries allows the inference and quantification of structural variants in DNA repair outcomes after genome editing. If the two fragments were aligned to different chromosomes, the SV was classified as an “inter-chromosomal translocation.” The magnitude of structural variation was shown in FIG. 9A and Table 18.

Structure (SMILES): Cc1cc2ncnn2cc1Nc1ncc2c(n1)n(C1CCC3(CC1)CC3)c(=O)n2C [Compound 4, 7-methyl-2-((7-methyl-[1,2,4]triazolo[1,5-a]pyridin-6-yl)amino)-9-(spiro[2.5]octan-6-yl)-7,9-dihydro-8H-purin-8-one]
- Sites Validated (TRBC): 0
- Sites Validated (TRAC): 0
- Percent of NK cells with high GFP expression (Mean) (NK cells; DNA-PKI 0.125 uM): 88.10%
- Percent of NK cells with high GFP expression (Mean) (NK cells; DNA-PKI 0.5 uM): 90.27%
- Mean % CD3^−/GFP+ Cells (n = 3) (T cells [1]; compound 0.0625 uM): 58.13%
- Mean % CD3^−/GFP+ Cells (n = 3) (T cells [1]; compound 1 uM): 80.07%
- Mean TRAC Editing % (T cells [2]; sgRNA 0 μg/mL, Spy Cas9 + Compound 4): 0.20%
- Mean TRAC Editing % (T cells [2]; sgRNA 0.026 μg/mL, Spy Cas9 + Compound 4): 48.55%
- Mean TRAC Editing % (T cells [2]; sgRNA 0.052 μg/mL, Spy Cas9 + Compound 4): 63.45%
- Mean TRAC Editing % (T cells [2]; sgRNA 0.104 μg/mL, Spy Cas9 + Compound 4): 79.25%
- Mean TRAC Editing % (T cells [2]; sgRNA 0.209 μg/mL, Spy Cas9 + Compound 4): 89.00%
- Mean TRAC Editing % (T cells [2]; sgRNA 0.418 μg/mL, Spy Cas9 + Compound 4): 94.45%
- Mean TRAC Editing % (T cells [2]; sgRNA 0.835 μg/mL, Spy Cas9 + Compound 4): 96.15%
- Mean TRAC Editing % (T cells [2]; sgRNA 1.67 μg/mL, Spy Cas9 + Compound 4 (2 μM stock, 25 μL added)): 96.10%
- Insertion Percent (Average) (T cells [3]): 67.82%
